pEC50, pKi: −log10 of the molar value.
Experiments:
dopamine release = experiment: Dopamine release; assay type: cell-based; conditions: for Emax: amount released relative to (S)-(-)-nicotine
Protocol: Determination of Dopamine Release
Dopamine release was measured using the techniques described in U.S. Pat. No. 5,597,919 to Dull et al. Release is expressed as a percentage of release obtained with a concentration of (S)-(−)-nicotine resulting in maximal effects. Reported EC50 values are expressed in nM, and Emax values represent the amount released relative to (S)-(−)-nicotine on a percentage basis.

[1] = system: ganglionic-type nicotinic acetylcholine receptors; experiment: Interaction with ganglion receptors; assay type: cell-based; conditions: at a concentration of 100 uM; relative to maximal activation by (S)-(-)-nicotine
Description: By this is meant that a particular dose of compound resulting in prevention and/or treatment of a CNS disorder, is essentially ineffective in eliciting activation of certain ganglionic-type nicotinic receptors. […] As such, such compounds have poor ability to cause isotopic rubidium ion flux through nicotinic receptors in cell preparations derived from the adrenal gland. Generally, typical preferred compounds useful in carrying out the present invention activate isotopic rubidium ion flux by less than 15 percent, often by less than 5 percent, of that maximally provided by S(−) nicotine.
Determination of Interaction with Ganglion Receptors
(§1) The determination of the interaction of the compounds with ganglionic receptors was carried out in accordance with the techniques described in U.S. Pat. No. 5,597,919 to Dull et al. The maximal activation for individual compounds (Emax) was determined as a percentage of the maximal activation induced by (S)-(−)-nicotine. Reported Emax values represent the amount released relative to (S)-(−)-nicotine on a percentage basis.

[2] = target: T1, muscle-type nicotinic acetylcholine receptors (Homo sapiens, UniProt P02708+P07510+Q07001); experiment: Interaction with muscle receptors; assay type: cell-based; conditions: at a concentration of 100 uM; relative to maximal activation by (S)-(-)-nicotine
T1 construct: cell preparations expressing muscle-type nicotinic acetylcholine receptors; endogenous in cells
T1 sequence (P02708 21-457): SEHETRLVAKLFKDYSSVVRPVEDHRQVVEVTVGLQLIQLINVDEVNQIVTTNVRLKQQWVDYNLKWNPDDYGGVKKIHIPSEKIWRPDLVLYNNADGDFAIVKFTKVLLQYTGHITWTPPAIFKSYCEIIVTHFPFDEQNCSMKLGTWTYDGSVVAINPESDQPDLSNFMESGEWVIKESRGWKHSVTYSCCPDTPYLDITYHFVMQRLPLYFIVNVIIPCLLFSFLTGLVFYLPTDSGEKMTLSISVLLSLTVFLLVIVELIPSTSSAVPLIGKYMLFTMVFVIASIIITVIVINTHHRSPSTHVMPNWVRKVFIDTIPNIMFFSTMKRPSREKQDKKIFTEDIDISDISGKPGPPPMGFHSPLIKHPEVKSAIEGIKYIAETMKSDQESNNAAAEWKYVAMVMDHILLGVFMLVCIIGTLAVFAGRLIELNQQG
T1 sequence (P11230 24-501 partner): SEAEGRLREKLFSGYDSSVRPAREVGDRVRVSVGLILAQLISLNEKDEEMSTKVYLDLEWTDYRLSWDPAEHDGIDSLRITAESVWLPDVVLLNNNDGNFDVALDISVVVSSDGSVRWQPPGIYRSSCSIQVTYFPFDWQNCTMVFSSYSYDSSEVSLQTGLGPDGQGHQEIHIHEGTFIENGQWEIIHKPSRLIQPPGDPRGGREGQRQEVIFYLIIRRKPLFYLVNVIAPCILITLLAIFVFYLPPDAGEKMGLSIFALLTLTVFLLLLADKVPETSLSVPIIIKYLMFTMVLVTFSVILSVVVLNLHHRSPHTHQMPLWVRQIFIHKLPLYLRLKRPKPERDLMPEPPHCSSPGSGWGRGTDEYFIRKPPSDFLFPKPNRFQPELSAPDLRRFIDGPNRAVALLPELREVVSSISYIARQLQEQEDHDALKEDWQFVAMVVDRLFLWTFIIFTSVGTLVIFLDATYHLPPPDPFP
T1 sequence (Q07001 22-517): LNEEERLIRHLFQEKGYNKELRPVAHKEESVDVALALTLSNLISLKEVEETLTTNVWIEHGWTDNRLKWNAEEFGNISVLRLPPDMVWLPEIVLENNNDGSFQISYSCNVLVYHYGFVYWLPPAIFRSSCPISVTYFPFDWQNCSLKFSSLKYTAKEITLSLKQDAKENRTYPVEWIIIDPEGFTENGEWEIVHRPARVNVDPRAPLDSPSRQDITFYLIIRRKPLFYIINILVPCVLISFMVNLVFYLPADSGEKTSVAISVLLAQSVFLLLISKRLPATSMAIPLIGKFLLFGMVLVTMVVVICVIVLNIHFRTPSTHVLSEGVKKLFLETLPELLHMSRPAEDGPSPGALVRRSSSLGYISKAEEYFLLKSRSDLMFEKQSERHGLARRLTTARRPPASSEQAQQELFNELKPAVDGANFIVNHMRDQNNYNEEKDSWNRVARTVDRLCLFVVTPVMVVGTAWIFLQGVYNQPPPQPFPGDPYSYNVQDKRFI
T1 sequence (P07510 23-517): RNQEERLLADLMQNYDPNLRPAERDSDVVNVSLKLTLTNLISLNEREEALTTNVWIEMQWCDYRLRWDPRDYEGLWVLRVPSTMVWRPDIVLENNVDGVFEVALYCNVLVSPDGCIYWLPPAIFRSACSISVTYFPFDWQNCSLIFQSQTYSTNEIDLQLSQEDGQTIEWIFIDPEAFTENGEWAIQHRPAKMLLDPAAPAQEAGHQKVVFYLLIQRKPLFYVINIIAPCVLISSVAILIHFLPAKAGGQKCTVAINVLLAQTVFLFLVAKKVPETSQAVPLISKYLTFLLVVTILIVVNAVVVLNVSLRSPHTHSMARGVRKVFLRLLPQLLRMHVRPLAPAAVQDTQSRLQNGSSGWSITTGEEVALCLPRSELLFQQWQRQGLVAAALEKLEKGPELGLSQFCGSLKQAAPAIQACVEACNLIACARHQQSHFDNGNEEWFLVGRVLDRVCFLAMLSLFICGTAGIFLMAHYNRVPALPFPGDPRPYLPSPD
Description: The compounds of the present invention, when employed in effective amounts in accordance with the method of the present invention, lack the ability to elicit activation of nicotinic receptors of human muscle to any significant degree. […] Generally, typical preferred compounds useful in carrying the present invention activate isotopic rubidium ion flux by less than 15 percent, often by less than 5 percent, of that maximally provided by S(−) nicotine.
Determination of Interaction with Muscle Receptors
as §1, with “muscle” for “ganglionic”

CNS nicotinic receptors = CNS nicotinic receptors (Rattus norvegicus, UniProt P09483+P12390); experiment: Binding to relevant receptor sites; conditions: inhibition constants calculated from IC50 values by the method of Cheng et al.
CNS nicotinic receptors, sequence (P09483 31-630): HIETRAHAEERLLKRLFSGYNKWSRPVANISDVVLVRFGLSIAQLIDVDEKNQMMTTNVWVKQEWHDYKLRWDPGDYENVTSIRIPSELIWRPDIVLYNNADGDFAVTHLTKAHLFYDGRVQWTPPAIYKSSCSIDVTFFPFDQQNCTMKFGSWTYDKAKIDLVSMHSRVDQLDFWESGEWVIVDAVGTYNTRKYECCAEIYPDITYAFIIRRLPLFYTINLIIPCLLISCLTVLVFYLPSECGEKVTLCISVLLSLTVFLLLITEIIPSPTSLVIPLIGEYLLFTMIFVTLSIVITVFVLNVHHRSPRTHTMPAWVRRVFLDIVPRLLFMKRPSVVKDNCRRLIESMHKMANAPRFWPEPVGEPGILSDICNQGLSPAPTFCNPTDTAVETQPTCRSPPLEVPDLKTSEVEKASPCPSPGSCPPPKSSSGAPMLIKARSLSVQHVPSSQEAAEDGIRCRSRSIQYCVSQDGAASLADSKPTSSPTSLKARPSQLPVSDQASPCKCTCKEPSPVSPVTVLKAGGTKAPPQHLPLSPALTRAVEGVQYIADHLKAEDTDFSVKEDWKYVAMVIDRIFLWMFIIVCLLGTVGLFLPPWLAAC
CNS nicotinic receptors, sequence (P12390 25-500): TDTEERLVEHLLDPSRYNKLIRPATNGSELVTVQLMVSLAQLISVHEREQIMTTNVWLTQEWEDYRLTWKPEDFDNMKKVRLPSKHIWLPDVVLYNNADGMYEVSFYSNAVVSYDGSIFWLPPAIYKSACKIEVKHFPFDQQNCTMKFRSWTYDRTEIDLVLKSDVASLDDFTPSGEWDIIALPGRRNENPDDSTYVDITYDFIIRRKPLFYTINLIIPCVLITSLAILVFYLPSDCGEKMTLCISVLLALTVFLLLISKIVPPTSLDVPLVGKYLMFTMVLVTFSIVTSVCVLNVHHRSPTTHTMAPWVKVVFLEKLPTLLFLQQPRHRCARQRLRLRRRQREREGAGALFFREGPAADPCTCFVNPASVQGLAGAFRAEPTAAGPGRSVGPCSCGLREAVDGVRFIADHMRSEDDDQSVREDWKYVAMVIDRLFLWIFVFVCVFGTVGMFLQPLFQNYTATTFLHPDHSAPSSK
Protocol: Determination of Binding to Relevant Receptor Sites
Binding of the compounds to relevant receptor sites was determined in accordance with the techniques described in U.S. Pat. No. 5,597,919 to Dull et al. Inhibition constants (Ki values), reported in nM, were calculated from the IC50 values using the method of Cheng et al., Biochem, Pharmacol. 22:3099 (1973).

NCC/C=C/c1cccc(N)c1 [Sample No. 1, (E)-4-(3-aminophenyl)-3-buten-1-amine]
pEC50 (dopamine release): 4.90 | Emax (dopamine release): 74% | Emax at ganglionic-type receptors [1]: 4% | Emax at 100 µM [2]: 0%

CNCC/C=C/c1cccc(N)c1 [Sample No. 2, (E)-N-methyl-4-(3-aminophenyl)-3-buten-1-amine]
pEC50 (dopamine release): 6.04 | Emax (dopamine release): 78% | Emax at ganglionic-type receptors [1]: 3% | Emax at 100 µM [2]: 7%

CNC(C)C/C=C/c1cccc(N)c1 (centres unmarked) [Sample No. 3, (E)-N-methyl-5-(3-aminophenyl)-4-penten-2-amine]
pEC50 (dopamine release): 6.04 | Emax (dopamine release): 78% | Emax at ganglionic-type receptors [1]: 6% | Emax at 100 µM [2]: 2%

(4E)-N-methyl-5-(3,4-methylenedioxyphenyl)-4-penten-2-amine hemigalactarate [Sample No. 4]
pKi (CNS nicotinic receptors): 4.93

(4E)-N-methyl-5-(3-acetamido-4-methylphenyl)-4-penten-2-amine hemigalactarate [Sample No. 10]
pKi (CNS nicotinic receptors): 5.00

(4E)-N-methyl-5-(3-amino-4-methylphenyl)-4-penten-2-amine hemigalactarate [Sample No. 9]
pKi (CNS nicotinic receptors): 5.48

(4E)-N-methyl-5-(3-fluorophenyl)-4-penten-2-amine hemigalactarate [Sample No. 6]
pKi (CNS nicotinic receptors): 5.24

(4E)-N-methyl-5-(4-methyl-3-nitrophenyl)-4-penten-2-amine hemigalactarate [Sample No. 7]
pKi (CNS nicotinic receptors): 5.19

From patent US6337351B1, “Pharmaceutical compositions and methods for use” (Targacept, Inc., priority 1998, dated 2002)
